Measurements published in patent US5624902A, “Peptide inhibitors of calmodulin” (Torrey Pines Institute for Molecular Studies, priority 1995, dated 1997).
Square brackets hold non-standard residues; d marks the D form. Peptide text beside a SMILES is read from it.

Molecular target: calmodulin (Homo sapiens, UniProt P0DP23)
Assay: calcium-dependent phosphodiesterase assay (inhibition of calmodulin activity)
Format: biochemical
Details: for IC50: concentration inhibiting 50% of calmodulin activity, assayed at 75 μM, 50 μM and 12.5 μM; for inhibition at 50 µM: inhibition of calmodulin activation of phosphodiesterase at 50 μM peptide, PDE without calmodulin = 100%, Calmo = 0%

| IC50 | inhibition at 50 µM | Structure (SMILES) |
| --- | --- | --- |
| > 50 µM | 44.5% | CC[C@@H](C)[C@@H](NC(=O)[C@@H](CCCNC(=N)N)NC(=O)[C@@H](CCC(N)=O)NC(=O)[C@@H](CC(C)C)NC(C)=O)C(=O)N[C@H](CC(C)C)C(=O)N[C@H](Cc1c[nH]c2ccccc12)C(N)=O [Ac-(D)Leu-(D)Gln-(D)Arg-(D)Ile-(D)Leu-(D)Trp-NH2] (Ac-[dL][dQ][dR][dI][dL][dW]-NH2) |
|  | 107% | CC[C@H](C)[C@H](NC(=O)[C@H](Cc1ccccc1)NC(C)=O)C(=O)N[C@H](C(=O)N[C@@H](Cc1c[nH]c2ccccc12)C(=O)N[C@@H](Cc1ccccc1)C(=O)N[C@@H](CCC(=O)O)C(N)=O)[C@@H](C)CC [Ctr 3, Ac-Phe-Ile-Ile-Trp-Phe-Glu-NH2, reference compound] (Ac-FIIWFE-NH2) |
| ≤ 10 µM | 90.8% | CC(=O)N[C@H](CC(C)C)C(=O)N[C@H](Cc1c[nH]c2ccccc12)C(=O)N[C@H](CCCNC(=N)N)C(=O)N[C@H](Cc1c[nH]cn1)C(=O)N[C@H](CC(C)C)C(=O)N[C@H](Cc1c[nH]c2ccccc12)C(N)=O [Ac-(D)Leu-(D)Trp-(D)Arg-(D)His-(D)Leu-(D)Trp-NH2] (Ac-[dL][dW][dR][dH][dL][dW]-NH2) |
| ≤ 9 µM | 92.1% | CC[C@@H](C)[C@@H](NC(=O)[C@@H](Cc1c[nH]c2ccccc12)NC(=O)[C@@H](CC(C)C)NC(C)=O)C(=O)N[C@@H](C(=O)N[C@H](Cc1c[nH]cn1)C(=O)N[C@H](Cc1c[nH]c2ccccc12)C(N)=O)[C@H](C)CC [Ac-(D)Leu-(D)Trp-(D)Ile-(D)Ile-(D)His-(D)Trp-NH2] (Ac-[dL][dW][dI][dI][dH][dW]-NH2) |
| 12 µM | 103% | CC[C@@H](C)[C@@H](NC(=O)[C@@H](Cc1c[nH]c2ccccc12)NC(=O)[C@@H](CC(C)C)NC(C)=O)C(=O)N[C@H](Cc1c[nH]cn1)C(=O)N[C@H](CC(C)C)C(=O)N[C@H](CCCNC(=N)N)C(N)=O [Ac-(D)Leu-(D)Trp-(D)Ile-(D)His-(D)Leu-(D)-Arg-NH2] (Ac-[dL][dW][dI][dH][dL][dR]-NH2) |
| > 50 µM | 47.4% | CC[C@@H](C)[C@@H](NC(=O)[C@@H](CCC(N)=O)NC(=O)[C@@H](CC(C)C)NC(C)=O)C(=O)N[C@@H](C(=O)N[C@H](CC(C)C)C(=O)N[C@H](Cc1c[nH]c2ccccc12)C(N)=O)[C@H](C)CC [Ac-(D)Leu-(D)Gln-(D)Ile-(D)Ile-(D)Leu-(D)Trp-NH2] (Ac-[dL][dQ][dI][dI][dL][dW]-NH2) |
| > 50 µM | -13.2% | CC[C@@H](C)[C@@H](NC(=O)[C@@H](CCCNC(=N)N)NC(=O)[C@@H](CCC(N)=O)NC(=O)[C@@H](CC(C)C)NC(C)=O)C(=O)N[C@H](CC(C)C)C(=O)N[C@H](CCCNC(=N)N)C(N)=O [Ac-(D)Leu-(D)Gln-(D)Arg-(D)Ile-(D)Leu-(D)Arg-NH2] (Ac-[dL][dQ][dR][dI][dL][dR]-NH2) |
|  | 36.8% | CC(=O)N[C@H](CC(C)C)C(=O)N[C@H](Cc1c[nH]c2ccccc12)C(=O)N[C@H](CCCNC(=N)N)C(=O)N[C@H](Cc1c[nH]cn1)C(=O)N[C@H](Cc1c[nH]cn1)C(=O)N[C@H](Cc1c[nH]c2ccccc12)C(N)=O [Ac-(D)Leu-(D)Trp-(D)Arg-(D)His-(D)His-(D)Trp-NH2] (Ac-[dL][dW][dR][dH][dH][dW]-NH2) |
| 76 µM | 60.5% | CC[C@@H](C)[C@@H](NC(=O)[C@@H](CCC(N)=O)NC(=O)[C@@H](CC(C)C)NC(C)=O)C(=O)N[C@H](Cc1c[nH]cn1)C(=O)N[C@H](Cc1c[nH]cn1)C(=O)N[C@H](Cc1c[nH]c2ccccc12)C(N)=O [Ac-(D)Leu-(D)Gln-(D)Ile-(D)His-(D)His-(D)Trp-NH2] (Ac-[dL][dQ][dI][dH][dH][dW]-NH2) |
